One series addresses T1, recombinant Neprilysin (Homo sapiens, UniProt P08473).
T1 construct: purchased R&D Systems 1182-ZNC-010
Put plainly: Proteolytic resistance to neprilysin. The series is classed as in vitro ADME. Conditions: pH 8.3; for remaining at 4 h / remaining at 24 h: isolated enzyme neprilysin. On the procedure:
10.0 μg (˜10 units) recombinant Neprilysin (R&D Systems: 1182-ZNC-010) was reconstituted to 100 μL (100 μg/mL, ˜100 units/mL) in assay buffer (50 mM Tris, 50 mM NaCl, 50 mM NaHCO3, adjusted to pH 8.3) to give the enzyme stock solution. Peptide stock solutions were prepared to a concentration of ˜250 μM (˜1.0 mg/mL of 4 kDa peptide) in assay buffer. 100 μL (10 μg, ˜10 units) of neprilysin stock solution was added to 100 μL of peptide stock solution (1.0 mg/mL, ˜100 μg of peptide) and the mixture was co-incubated in a temperature regulated incubator at 37° C. for the duration of the experiment. 25 μL aliquots (˜ 12.5 μg initial peptide) of the peptide-enzyme mixture were periodically withdrawn (t=0, 30 mins, 1 h, 2 h, 4 h and 24 h) and quenched immediately by addition to an equal volume ([…]) of 10% TFA (v/v) in 1:1 water/acetonitrile to arrest proteolytic activity. The quenched aliquot centrifuged at 7800 rpm, and 30 μL of the supernatant was analyzed by analytical RP-HPLC as follows: Analytical RP-HPLC method: Agilent Polaris C8-A column (4.6×100 mm, 3 micron) eluted with a linear binary gradient of 10-90% MeCN (0.1% TFA v/v) in water (0.1% TFA v/v) over either 10 or 15 mins at 1.5 mL min-1 at 40° C. with detection by UV absorption at 210 nm. Manual integration (AUC) allowed estimation of remaining intact peptide over the time course of the experiment.

Series [1] deals with human GLP-1 receptor (hGLP-1R) (Homo sapiens, UniProt P43220). Put plainly: cAMP production (HTRF) in CHO cells expressing hGLP-1R. It counts as cell-based. Details: expressed in transfected cells. Particulars: for EC50: cAMP in CHO hGLP-1R cells, geometric mean, read-out: hGLP-1R EC50; for % Relative Potency Ratio: % GLP-1R activity relative to GLP-1 / % GlucR activity relative to glucagon. The essentials: (§1)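 Read-out: HTRF cAMP (anti-cAMP cryptate donor, cAMP-d2 acceptor in conjugate/lysis buffer), converted to % Delta F and fitted by 4-parameter logistic for EC50. Cell densities were 1×10^5 cells/mL (hGLP-1R) or 2×10^5 cells/mL (hGCGR). Stimulation lasted 30 min at room temperature.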
Chain of human GLP-1 receptor (hGLP-1R) (P43220 24-463): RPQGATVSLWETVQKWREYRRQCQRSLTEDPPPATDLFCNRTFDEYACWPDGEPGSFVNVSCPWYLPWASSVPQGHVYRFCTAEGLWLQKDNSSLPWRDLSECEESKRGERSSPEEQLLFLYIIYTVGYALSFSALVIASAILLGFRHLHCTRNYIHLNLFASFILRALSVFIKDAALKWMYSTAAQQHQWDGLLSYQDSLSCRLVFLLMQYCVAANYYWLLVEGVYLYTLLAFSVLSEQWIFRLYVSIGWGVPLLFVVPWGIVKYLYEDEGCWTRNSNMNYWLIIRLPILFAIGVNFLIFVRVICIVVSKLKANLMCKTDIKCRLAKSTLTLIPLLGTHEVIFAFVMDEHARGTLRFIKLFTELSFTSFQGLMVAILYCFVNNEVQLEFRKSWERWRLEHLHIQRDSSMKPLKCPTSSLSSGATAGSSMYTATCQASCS
Background: cAMP levels reflect the balance of adenylyl cyclase and phosphodiesterase activity.

The target of series [2] is human glucagon receptor (hGCGR) (Homo sapiens, UniProt P47871). The series is described as follows: cAMP production (HTRF) in CHO cells expressing hGCGR. It counts as cell-based. Details: expressed in transfected cells. Particulars: cAMP in CHO hGCGR cells, geometric mean, read-out: hGluc-R EC50. The gist of the method: as §1
Chain of human glucagon receptor (hGCGR) (P47871 26-477): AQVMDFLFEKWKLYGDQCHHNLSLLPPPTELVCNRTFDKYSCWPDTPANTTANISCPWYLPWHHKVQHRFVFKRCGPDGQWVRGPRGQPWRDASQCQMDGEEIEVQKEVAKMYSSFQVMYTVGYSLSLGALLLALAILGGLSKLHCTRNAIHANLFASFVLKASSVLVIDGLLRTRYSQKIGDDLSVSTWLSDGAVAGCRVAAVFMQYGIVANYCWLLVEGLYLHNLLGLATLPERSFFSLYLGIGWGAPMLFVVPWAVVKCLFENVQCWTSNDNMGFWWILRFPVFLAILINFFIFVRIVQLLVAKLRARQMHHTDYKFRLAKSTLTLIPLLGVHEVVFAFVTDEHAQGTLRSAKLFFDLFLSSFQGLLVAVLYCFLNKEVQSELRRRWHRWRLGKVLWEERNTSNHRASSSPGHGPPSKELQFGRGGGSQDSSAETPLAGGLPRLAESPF
A short description of series [3]: Proteolytic resistance to FasSSGF containing porcine pancreatic pepsin. The series is classed as in vitro ADME. Particulars: pig, simulated gastric fluid. The method, then:
Stimulated Gastric Fluid (FasSSGF) Containing Porcine Pancreatic Pepsin Lyophilized porcine pancreatic pepsin (Sigma: P7012) was reconstituted to 0.5 mg/mL (˜2500 units/mL) in freshly prepared FasSSGF (Biorelevant media) to give the enzyme stock solution. Peptide stock solution was prepared to a concentration of 250 μM (˜1.0 mg/mL) in FasSSGF. 200 μL ([…], ˜250 units) of pepsin stock solution was added to 200 μL of peptide solution (1.0 mg/mL, ˜100 μg of peptide, ˜25 nmoles) and the mixture was co-incubated in a temperature-regulated incubator at 37° C. for the duration of the experiment. 30 μL aliquot of the peptide-enzyme mixture was periodically withdrawn (t=0, 5, 10, 15, and 30 min) and quenched immediately by addition of 80 μL of 0.1M ammonium bicarbonate solution in water/acetonitrile (4:1, pH 8) to arrest proteolytic activity. 30 μL aliquot was analyzed by analytical RP-HPLC. Analytical RP-HPLC method: Agilent Polaris C8-A column (4.6×100 mm, 3 micron) eluted with a linear binary gradient of 10-90% MeCN (0.1% TFA v/v) in water (0.1% TFA v/v) over either 10 or 15 mins at 1.5 mL min-1 at 40° C. with detection by UV absorption at 210 nm. Manual integration (AUC) allowed estimation of remaining intact peptide over the time course of the experiment.

Where [4] appears, read: Table 6, peptides modified at position 17.
The mark [5] stands for this setting: Table 7, peptides modified at position 20.

Results on four compounds are retold here after patent US20250353891A1 (MEDIMMUNE LIMITED, priority 2022, published 2025).

Like-named read-outs stand apart in the source and are kept apart here. Starred links: 1 amine or outer side, 2 acyl side, 3 side chain; linkers in the order of their positions; H or OH if unused. Non-standard residues stand in square brackets, D forms with d. Residues, ends and D or L forms follow the SMILES beside them. Groups on a side chain read outwards from the residue. *: point of attachment. C20 diacid = O=C(O)CCCCCCCCCCCCCCCCCCC(=O)*; C18 diacid = O=C(O)CCCCCCCCCCCCCCCCC(=O)*; γGlu = O=C(O)[C@H](CCC(=O)[*:2])N[*:1]; αMeF = C[C@](N)(Cc1ccccc1)C(=O)O; AEEA = NCCOCCOCC(=O)O; Aib = CC(C)(N)C(=O)O

For orientation: fraction remaining means what is left of the initial amount, in per cent. What is called EC50 is the concentration needed to bring the measured effect to its halfway point.

T1 sequence (P08473 52-750 limits assumed): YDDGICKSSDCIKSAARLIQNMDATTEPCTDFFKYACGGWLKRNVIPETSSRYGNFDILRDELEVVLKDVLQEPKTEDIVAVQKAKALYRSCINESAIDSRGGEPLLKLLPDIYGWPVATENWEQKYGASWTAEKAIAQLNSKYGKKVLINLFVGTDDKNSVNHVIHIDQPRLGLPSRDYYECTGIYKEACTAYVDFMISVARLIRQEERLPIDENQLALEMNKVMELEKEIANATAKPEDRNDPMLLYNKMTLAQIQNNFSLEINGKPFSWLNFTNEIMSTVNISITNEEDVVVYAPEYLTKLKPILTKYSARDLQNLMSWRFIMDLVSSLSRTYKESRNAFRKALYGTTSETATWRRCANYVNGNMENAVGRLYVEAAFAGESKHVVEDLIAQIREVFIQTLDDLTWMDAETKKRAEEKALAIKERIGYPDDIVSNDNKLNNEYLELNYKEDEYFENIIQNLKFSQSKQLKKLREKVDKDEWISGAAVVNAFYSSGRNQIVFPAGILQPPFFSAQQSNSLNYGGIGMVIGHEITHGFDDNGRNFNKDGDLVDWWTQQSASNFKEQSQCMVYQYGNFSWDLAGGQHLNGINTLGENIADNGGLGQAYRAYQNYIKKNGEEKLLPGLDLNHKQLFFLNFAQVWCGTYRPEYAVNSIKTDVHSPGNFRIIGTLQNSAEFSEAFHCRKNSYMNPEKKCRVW

In the case of `CC[C@H](C)[C@H](NC(=O)C(C)(C)NC(=O)[C@H](CCC(=O)O)NC(=O)[C@@H](NC(=O)[C@](C)(Cc1ccccc1)NC(=O)[C@H](CC(=O)O)NC(=O)[C@H](CCCNC(=N)N)NC(=O)[C@H](C)NC(=O)[C@H](C)NC(=O)[C@H](CCCCNC(=O)COCCOCCNC(=O)COCCOCCNC(=O)CC[C@H](NC(=O)CCCCCCCCCCCCCCCCC(=O)O)C(=O)O)NC(=O)[C@H](CO)NC(=O)[C@H](CC(=O)O)NC(=O)[C@H](CC(C)C)NC(=O)[C@](C)(Cc1ccccc1)NC(=O)[C@H](CCCCN)NC(=O)[C@H](CO)NC(=O)[C@@H](NC(=O)[C@H](CC(=O)O)NC(=O)[C@H](CO)NC(=O)[C@@H](NC(=O)[C@](C)(Cc1ccccc1)NC(=O)[C@H](CO)NC(=O)CNC(=O)[C@H](Cc1c[nH]cn1)NC(=O)C(C)(C)NC(=O)[C@@H](N)Cc1c[nH]cn1)[C@@H](C)O)C(C)C)C(C)C)C(=O)N[C@@H](C)C(=O)N[C@@H](CC(N)=O)C(=O)N[C@H](C(N)=O)[C@@H](C)O` [Peptide 15] (H-H[Aib]HGS[αMeF]TSDVSK[αMeF]LDSK([AEEA-AEEA-γGlu-C18 diacid])AARD[αMeF]VE[Aib]IANT-NH2; N-terminus assumed), on recombinant Neprilysin, the amount remaining at 4 h was 100%, the fraction remaining at 24 h turned out to be 83% and the “% intact peptide over time” value is 100%. In addition, in series [1] (setting [4]), the EC50 amounted to 0.0331 nM. Moreover, the “% Relative Potency Ratio” value in series [1] (Table 6) amounted to 3.7. Further, the EC50 in series [2] (setting [4]) stood at 0.0614 nM. In series [3], the fraction remaining at 0.25 h, 125 µM is 91% and the fraction remaining at 0.5 h, 125 µM is 77%.

`CC[C@H](C)[C@H](NC(=O)C(C)(C)NC(=O)[C@H](CCC(N)=O)NC(=O)[C@@H](NC(=O)[C@](C)(Cc1ccccc1)NC(=O)[C@H](CC(=O)O)NC(=O)[C@H](CCCCNC(=O)COCCOCCNC(=O)COCCOCCNC(=O)CC[C@H](NC(=O)CC[C@H](NC(=O)CCCCCCCCCCCCCCCCCCC(=O)O)C(=O)O)C(=O)O)NC(=O)[C@H](C)NC(=O)[C@H](C)NC(=O)[C@H](CCCNC(=N)N)NC(=O)[C@H](CO)NC(=O)[C@H](CC(=O)O)NC(=O)[C@H](CC(C)C)NC(=O)[C@](C)(Cc1ccccc1)NC(=O)[C@H](CCCCN)NC(=O)[C@H](CO)NC(=O)[C@@H](NC(=O)[C@H](CC(=O)O)NC(=O)[C@H](CO)NC(=O)[C@@H](NC(=O)[C@H](Cc1ccccc1)NC(=O)[C@H](CO)NC(=O)CNC(=O)[C@H](Cc1c[nH]cn1)NC(=O)C(C)(C)NC(=O)[C@@H](N)Cc1c[nH]cn1)[C@@H](C)O)C(C)C)C(C)C)C(=O)N[C@@H](C)C(=O)N[C@@H](CC(N)=O)C(=O)N[C@H](C(N)=O)[C@@H](C)O` [Peptide 282] (H-H[Aib]HGSFTSDVSK[αMeF]LDSRAAK([AEEA-AEEA-γGlu-γGlu-C20 diacid])D[αMeF]VQ[Aib]IANT-NH2): on recombinant Neprilysin, the share remaining at 4 h is 100%, the amount remaining at 24 h turned out to be 97% and the “% intact peptide over time” value stood at 100%. Besides, the EC50 in series [1] (setting [5]) is 1.23 nM. Besides, the “% Relative Potency Ratio” value in series [1] (Table 7) came out at 1.8. Further, the concentration for a half-maximal effect (EC50) in series [2] (setting [5]) was found to be 1.14 nM. In series [3], this compound gave an amount remaining at 0.25 h, 125 µM of 83% and a fraction remaining at 0.5 h, 125 µM of 76%.

`CC[C@H](C)[C@H](NC(=O)C(C)(C)NC(=O)[C@H](CCC(N)=O)NC(=O)[C@@H](NC(=O)[C@](C)(Cc1ccccc1)NC(=O)[C@H](CC(=O)O)NC(=O)[C@H](CCCCNC(=O)COCCOCCNC(=O)COCCOCCNC(=O)CC[C@H](NC(=O)CC[C@H](NC(=O)CCCCCCCCCCCCCCCCCCC(=O)O)C(=O)O)C(=O)O)NC(=O)[C@H](C)NC(=O)[C@H](C)NC(=O)[C@H](CCCNC(=N)N)NC(=O)[C@H](CO)NC(=O)[C@H](CC(=O)O)NC(=O)[C@H](CC(C)C)NC(=O)[C@H](Cc1ccc(O)cc1)NC(=O)[C@H](CCCCN)NC(=O)[C@H](CO)NC(=O)[C@@H](NC(=O)[C@H](CC(=O)O)NC(=O)[C@H](CO)NC(=O)[C@@H](NC(=O)[C@](C)(Cc1ccccc1)NC(=O)[C@H](CO)NC(=O)CNC(=O)[C@H](Cc1c[nH]cn1)NC(=O)C(C)(C)NC(=O)[C@@H](N)Cc1c[nH]cn1)[C@@H](C)O)C(C)C)C(C)C)C(=O)N[C@@H](C)C(=O)N[C@@H](CC(N)=O)C(=O)N[C@H](C(N)=O)[C@@H](C)O` [Peptide 283] (H-H[Aib]HGS[αMeF]TSDVSKYLDSRAAK([AEEA-AEEA-γGlu-γGlu-C20 diacid])D[αMeF]VQ[Aib]IANT-NH2): on recombinant Neprilysin, the share remaining at 4 h came to 81%, the share remaining at 24 h came out at 63% and the “% intact peptide over time” value is 100%. Also, the EC50 in series [1] (setting [5]) stood at 0.129 nM. Moreover, in series [1] (Table 7), the “% Relative Potency Ratio” value was 8.4. Also, the concentration giving a half-maximal response (EC50) in series [2] (setting [5]) was 0.552 nM. In series [3], this compound had a fraction remaining at 0.25 h, 125 µM of 68% and a fraction remaining at 0.5 h, 125 µM of 48%.

Consider `CC[C@H](C)[C@H](NC(=O)[C@H](Cc1c[nH]c2ccccc12)NC(=O)[C@H](CCC(N)=O)NC(=O)[C@@H](NC(=O)[C@H](Cc1ccccc1)NC(=O)[C@H](CC(=O)O)NC(=O)[C@H](CCCCNC(=O)COCCOCCNC(=O)COCCOCCNC(=O)CC[C@H](NC(=O)CC[C@H](NC(=O)CCCCCCCCCCCCCCCCCCC(=O)O)C(=O)O)C(=O)O)NC(=O)[C@H](C)NC(=O)[C@H](C)NC(=O)[C@H](CCCNC(=N)N)NC(=O)[C@H](CO)NC(=O)[C@H](CC(=O)O)NC(=O)[C@H](CC(C)C)NC(=O)[C@](C)(Cc1ccccc1)NC(=O)[C@H](CCCCN)NC(=O)[C@H](CO)NC(=O)[C@@H](NC(=O)[C@H](CC(=O)O)NC(=O)[C@H](CO)NC(=O)[C@@H](NC(=O)[C@H](Cc1ccccc1)NC(=O)[C@H](CO)NC(=O)CNC(=O)[C@H](Cc1c[nH]cn1)NC(=O)C(C)(C)NC(=O)[C@@H](N)Cc1c[nH]cn1)[C@@H](C)O)C(C)C)C(C)C)C(=O)N[C@@H](C)C(=O)N[C@@H](CC(N)=O)C(=O)N[C@H](C(N)=O)[C@@H](C)O` [Peptide 290] (H-H[Aib]HGSFTSDVSK[αMeF]LDSRAAK([AEEA-AEEA-γGlu-γGlu-C20 diacid])DFVQWIANT-NH2), for which, on recombinant Neprilysin, the “% intact peptide over time” value is given as 100%. In addition, in series [3], the amount remaining at 0.25 h, 125 µM is 0% and the share remaining at 0.5 h, 125 µM is 0%.
